{"source": "patent US20050250838A1", "about": "“Formulation for sustained delivery” (priority 2004, published 2005)", "origin": "cited, not measured here", "key": {"[1]": {"settings": "at 6 weeks"}}, "note": "Structures can show the parent of a compound that is named as a salt."}
{"smiles": "CNCCC(Oc1ccc(C(F)(F)F)cc1)c1ccccc1", "note": "(stereo not drawn) [fluoxetine]", "values": [{"measurement": "response", "setting": "[1]", "value": "about 50%"}]}
{"smiles": "Fc1ccc([C@@H]2CCNC[C@H]2COc2ccc3c(c2)OCO3)cc1", "note": "[paroxetine hydrochloride hemihydrate]", "values": [{"measurement": "solubility in water", "setting": "water", "value": "6000 to 12000", "unit": "µg/mL"}]}
{"smiles": "Fc1ccc([C@@H]2CCNC[C@H]2COc2ccc3c(c2)OCO3)cc1", "note": "[amorphous paroxetine hydrochloride, paroxetine hydrochloride]", "values": [{"measurement": "solubility", "setting": "at room temperature (U.S. Pat. No. 6,660,298)", "value": "up to 75 mg/ml"}]}
